Source: US20020065212A1, “METHODS OF TREATING DISEASE USING SERTOLI CELLS AND ALLOGRAFTS OR XENOGRAFTS” (priority 1996, published 2002)

Legend:
[1] = system: spontaneously diabetic BB/Wor dp rats; assay: Metabolic parameters, serum insulin and glucagon after intratesticular islet grafts; format: in vivo, rat
Source text: This study examined insulin and glucagon secretory patterns in spontaneously diabetic bb/Wor dp rats transplanted with abdominal, intratesticular, islet grafts. Diabetic, BB/Wor dp, rats received intratesticular islet grafts from MHC-compatible BB/Wor dr rats and no immunosuppression. After a period of 74±15 days, of normoglycemia, three different groups (controls; BB/Wor dp, transplanted; and BB/Wor dp, insulin treated) were given the following challenges; (1) an oral glucose tolerance test (OGTT), (2) a single oral dose of glipizide, followed by an OGTT, and (3) arginine, by intravenous infusion. The results of this study are shown in Tables 1 and 2 and FIGS. 5 and 6.

[2] = system: spontaneously diabetic BB/Wor dp rats; assay: Pancreatic and testicular insulin and glucagon content; format: in vivo, rat

## insulin
[1]; After 2.5 months
  Plasma Glucose: 350 ± 40 mg/dL
[1]; Prior to therapy
  Plasma Glucose: 510 ± 13+ mg/dl
[1]; rat, in vivo
  Fasting Plasma Glucagon: 47.4 ± 4.9 pg/mL
  Weight gain: 48 ± 14$ g
[2]; pancreas
  Pancreatic Glucagon content: 6.9 ± 0.80 ng/mg
  Pancreatic Insulin content: 0.76 ± 0.12 µg/g
[2]; testes fractions
  Testicular Glucagon content: 0.0 ng/mg
  Testicular Insulin content: 0.0 µg/g
